Data from patent publication US9018174B2, “Mouse model and treatment of hereditary inclusion body myopathy” (HIBM Research Group, Inc., priority 2008, dated 2015).
Substitutions are numbered along the chain they refer to. Several values for one entry are separate records, joined by “and”; a condition that tells them apart may be missing. Equal entries are not always repeated. Entries after “also recorded” stand apart in the source; their conditions may differ.

Key:
cultured cells = conditions: SiaLev or SiaNAz as downstream product; cited from earlier work
GNE-M712T knock-in mice [1] = assay: Rescue of GNE-M712T knock-in mice by ManNAc feeding (survival of homozygous pups); assay type: in vivo, mouse
Description: GNE-M712T mice. GNE-M712T knock-in mice were generated by targeting the M712T (ATG>ACG) mutation exon 12 of the murine GNE gene (Uae1, Gne, GenBank NM_015828). The mutant mice were maintained in the C57BL/6J background. Animals were housed in ventilated cages in a temperature- and light-controlled environment (22° C., 30-70% humidity, 12-hour light/12-hour dark cycle) and were fed irradiated chow (Prolab 5P75 Isopro 3000; PMI Nutrition International) and water ad libitum. All euthanasia was performed with by CO2 followed by cervical dislocations. For Mendelian distribution studies, four pregnant mice E17-19 were euthanized and embryos were retrieved by cesarean section and euthanized by decapitation. All mouse procedures were performed in accordance with protocol G04-3 approved by the Institutional Animal […] and Use Committee of the National Human Genome Research Institute, National Institutes of Health Institutional Review Board.
(§1) ManNAc administration. Breeding pairs of 6-week-old +/− mice were divided into three groups. Group I consisted of 9 +/− breeding pairs who were administered untreated sterilized tap water. Group II consisted of one breeding pair of +/+ mice (wild-type control) and 6 +/− breeding pairs who were administered 1 mg/ml ManNAc (Sigma) supplemented water. Group III consisted of one +/+ breeding pair and 7 +/− breeding pairs who were administered 5 mg/ml ManNAc supplemented water. Water was changed twice weekly. Nursing females continued to be supplied with ManNAc. All mice were weaned from ManNAc at 21 days. Selected whole litters were sacrificed at age P2 or P6 for histological, genetic, biochemical or ultrastructural analysis.
Statistical analysis. Differences in genotype distribution (+/+: +/−-−/−) between an untreated control group and ManNAc treated group were tested by a two-tailed Fisher's exact test. To this end a 2×3 table was generated.

GNE-M712T knock-in mice [2] = assay: Tissue histology and electron microscopy of ManNAc treated -/- mice at P6; assay type: in vivo, mouse; conditions: age P6
Description: Mouse Histology. Mouse tissues were collected, formalin-fixed and paraffin-embedded. Tissue sections (5 μm) were prepared and stained with hematoxylin and eosin following standard procedures (American Histolabs) or subjected to immunohostochemistry with a variety of primary antibodies. Formalin fixed tissues were deparafinized in Histoclear II (National Diagnostics), […] in a series of ethanol solutions. Antigen retrieval was performed for sections to be stained with the antibodies GNE/MNK (5 min boiling in citric acid based solution; Vector Laboratories) and dystrophin (boiling in 1 mM EDTA, according the manufacturer's protocol; AbCam). The sections were blocked (2% BSA, 10% donkey serum and 0.1% Triton X-100 in PBS) and incubated with primary antibodies (GNE/MNK 1:50; laminin 1:25; dystrophin 1:50) overnight at 4° C., followed by the secondary antibody Alexa 488 donkey-anti-rabbit (1:500 in blocking solution) (Invitrogen). The sections were mounted in Vectashield (Vector Laboratories) and viewed and digitally imaged with a Zeiss Axiovert 200M microscope (Carl Zeiss, Microimaging).
Electron Microscopy. […] The grids were viewed with a Philips 410 electron microscope (FEI Company) at 80 kV and images were recorded on Kodak SO-163 film (Kodak). […]

[3] = target: T1, UDP-GlcNAC 2-epimerase (GNE) (Mus musculus, UniProt Q91WG8); assay: GNE/MNK epimerase enzymatic assay on tissue after ManNAc feeding; assay type: in vivo; conditions: +/+ mice, skeletal muscle, age P2, ManNAc treatment, n=3
T1 construct: Mouse kidney and skeletal muscle (hindlimb quadriceps) tissues were homogenized; from tissue; host or cells: skeletal muscle and kidney of GNE-M712T knock-in mice (C57BL/6J), age P2
T1 sequence (Q91WG8 1-722): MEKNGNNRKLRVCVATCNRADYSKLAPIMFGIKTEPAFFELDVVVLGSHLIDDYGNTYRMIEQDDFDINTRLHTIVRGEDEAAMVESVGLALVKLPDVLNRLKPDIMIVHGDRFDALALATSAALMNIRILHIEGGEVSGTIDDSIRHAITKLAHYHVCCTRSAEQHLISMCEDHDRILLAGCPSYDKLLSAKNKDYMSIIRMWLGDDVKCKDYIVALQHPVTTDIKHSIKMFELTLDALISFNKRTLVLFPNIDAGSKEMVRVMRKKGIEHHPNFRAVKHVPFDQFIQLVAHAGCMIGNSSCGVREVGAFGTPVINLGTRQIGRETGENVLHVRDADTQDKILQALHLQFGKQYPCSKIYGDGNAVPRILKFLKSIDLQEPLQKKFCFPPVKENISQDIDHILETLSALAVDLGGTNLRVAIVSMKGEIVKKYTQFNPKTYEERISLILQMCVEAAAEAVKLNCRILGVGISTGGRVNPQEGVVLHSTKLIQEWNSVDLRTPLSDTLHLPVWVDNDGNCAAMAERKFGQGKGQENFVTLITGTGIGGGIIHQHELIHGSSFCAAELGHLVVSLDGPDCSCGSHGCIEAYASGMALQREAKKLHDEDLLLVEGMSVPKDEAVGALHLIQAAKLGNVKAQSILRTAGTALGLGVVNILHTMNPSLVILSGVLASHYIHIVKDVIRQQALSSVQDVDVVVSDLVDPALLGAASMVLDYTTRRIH
Description: as §1
(§2) GNE/MNK enzymatic assays. Mouse kidney and skeletal muscle (hindlimb quadriceps) tissues were homogenized and subjected to the GNE/MNK epimerase enzymatic assay as described^11,44. This assay is based on incubation with radiolabeled substrate (UDP-[^3H]GlcNAc; American Radiolabeled Chemicals), and detection of radiolabeled product ([^3H]ManNAc) upon separation of oligosaccharides by high pH anion-exchange chromatography with pulsed amperometric detection (Dionex).

[4] = target: T2, UDP-GlcNAC 2-epimerase (GNE) (Mus musculus, UniProt Q91WG8, M712T); assay: as above; assay type: in vivo; conditions: -/- mice, skeletal muscle, age P2, ManNAc treatment, n=7; untreated -/- 19%
T2 construct: Mouse kidney and skeletal muscle (hindlimb quadriceps) tissues were homogenized; from tissue; host or cells: skeletal muscle and kidney of GNE-M712T knock-in mice (C57BL/6J), age P2
T2 sequence (Q91WG8 1-722 M712T): T1 sequence (Q91WG8 1-722) with M712T
Description: as §1, §2

GNE/MNK protein = target: T3, GNE/MNK protein (Mus musculus, UniProt Q91WG8, M712T); assay: Immunoblot with anti-GNE/MNK antibodies of muscle and kidney extracts after ManNAc feeding; assay type: in vivo; conditions: ManNAc treated, referenced to β-actin, untreated -/- 78% decreased
T3 construct: Mouse kidney and skeletal muscle (hindlimb quadriceps) tissues were homogenized; from tissue; host or cells: skeletal muscle and kidney of GNE-M712T knock-in mice (C57BL/6J), age P2
T3 sequence (Q91WG8 1-722 M712T): T1 sequence (Q91WG8 1-722) with M712T
Text: (§3) Antibodies. A rabbit polyclonal antibody was custom prepared against a GNE/MNK peptide comprising amino acids 588-607: […] (SEQ ID NO:24), coupled to keyhole limpet hemocyanine (KLH) and affinity-purified against the corresponding antigenic peptide (Covance). Other primary antibodies were commercially obtained: dystrophin (ab15277, AbCam), α-dystroglycan (IIH6, Upstate Biotechnology), laminin (L9393, Sigma-Aldrich), podocalyxin (PODX15-A, Alpha Diagnostic International), PSA-NCAM (MAB5324, Chemicon), and β-actin (AAN01, Cytoskeleton).
(§4) Western blotting. Mouse tissues (age P2) were extracted, homogenized in CelLytic buffer, consisting of a mild detergent, bicine buffer and 150 mM NaC (CelLytic) supplemented with protease inhibitors (Complete Minia, Roche). The lysates were sonicated and cleared by centrifugation (1000 g for 10 min), and the resulting supernatants were assayed for protein concentration (BCA protein assay, Pierce). For the neuraminidase enzymatic treatments, protein homogenates (25 μg) were incubated with 1 mU/μg of Neuraminidase (N-6514, Sigma) for 30 min at 37° C. Equal amounts of protein (25-50 μg) were electrophoresed on 4-12% Tris-Glycine gels (Novex, Invitrogen), and electroblotted onto 0.45 μm Hybond ECL nitrocellulose membranes (Amersham Pharmacia Biotech). […]

PSA-NCAM = assay: Immunoblot with PSA-NCAM antibodies of brain tissue after ManNAc feeding; assay type: in vivo, mouse; conditions: n=14 pre treatment, n=10 post treatment, p=0.08
Text: as §3, §4

podocalyxin = assay: Immunoblot of podocalyxin sialylation in kidney extracts after ManNAc feeding; assay type: in vivo, mouse; conditions: -/- kidneys
Text: as §3, §4

[5] = test system: GNE-deficient mouse embryonic stem cells; conditions: growth medium supplemented with ManNAc; cited from earlier work
[6] = ManNAc 1 g/kg/day to +/- breeding pairs

SMILES	incorporation of sialic acid analogs into cell surface glycoconjugates (cultured cells)	surviving homozygous mice beyond age P3 (GNE-M712T knock-in mice [1]; 1 mg/ml ManNAc in drinking water during matings of +/- mice, 51 offspring)	homozygous pups surviving beyond P3, % of total -/- pups (GNE-M712T knock-in mice [1]; 5 mg ManNAc/ml in drinking water) [%]	number of homozygous pups that survived beyond P3 (GNE-M712T knock-in mice [1]; 5 mg ManNAc/ml in drinking water, out of 97 newborn pups)	homozygous mice that survived past P21 (GNE-M712T knock-in mice [1]; 5 mg ManNAc/ml in drinking water, supplementation ceased at P21)	-/- offspring that survived past P3 (GNE-M712T knock-in mice [1]; [6]) [%]	survivors past P3 that lived past weaning age P21 (GNE-M712T knock-in mice [1]; [6]) [%]	effect on survival of homozygous pups (GNE-M712T knock-in mice [1]; administration of ManNAc to pregnant mothers)	abnormalities in liver, heart and skeletal muscle tissues (GNE-M712T knock-in mice [2])	kidney histology (GNE-M712T knock-in mice [2])	GNE activity in +/+ muscle, relative to untreated +/+ set at 100% [3]	residual GNE activity in -/- muscle, relative to untreated +/+ set at 100% [4]	decreased amount of GNE/MNK protein compared to +/+ littermates (GNE/MNK protein)	increased PSA-NCAM signal compared to untreated -/- tissues (PSA-NCAM)	podocalyxin sialylation status (podocalyxin)	sialylation of hyposialylated cells [5]
CC(=O)CCC(=O)N[C@@H]1C(O)O[C@H](CO)[C@@H](O)[C@@H]1O (some centres unmarked) [ManLev, N-levulinoylmannosamine]	resulted in incorporation of the downstream sialic acid analogs	–	–	–	–	–	–	–	–	–	–	–	–	–	–	–
CC(=O)N[C@@H]1C(O)O[C@H](CO)[C@@H](O)[C@@H]1O (some centres unmarked) [ManNAc, N-acetylmannosamine]	–	did not yield any surviving homozygous mice beyond age P3	44	11	Two	42	18	remarkably salutary effect on survival of homozygous pups	No abnormalities	mildly to remarkably improved histological features; also recorded: mildly to significantly improved kidney histology	114 (±10) % and ~114%	31 (±9) % and 31%	41 (±3) %	2-28%	did not result in a statistically significant increase	became resialylated
[N-]=[N+]=NCC(=O)N[C@@H]1C(O)O[C@H](CO)[C@@H](O)[C@@H]1O (some centres unmarked) [ManNAz, N-azidoacetylmannosamine]	resulted in incorporation of the downstream sialic acid analogs	–	–	–	–	–	–	–	–	–	–	–	–	–	–	–
